# Data taken from ChEMBL document CHEMBL2380302, “Synthesis of 3-O-propargylated betulinic acid and its 1,2,3-triazoles as potential apoptotic agents” (Eur J Med Chem, 2013).
# Legend:
# [1] = system: HCT-15; experiment: Cytotoxicity against human HCT15 cells at 10 uM after 48 hrs by SRB assay; type: functional; conditions: HCT-15, 48 h, read-out: GI
# [2] = system: SF-295; experiment: Cytotoxicity against human SF295 cells at 10 uM after 48 hrs by SRB assay; type: functional; conditions: SF-295, 48 h, read-out: GI
# [3] = system: A549; experiment: Cytotoxicity against human A549 cells at 10 uM after 48 hrs by SRB assay; type: functional; conditions: A549, 48 h, read-out: GI
# [4] = system: MCF7; experiment: Cytotoxicity against human MCF7 cells at 10 uM after 48 hrs by SRB assay; type: functional; conditions: MCF7, 48 h, read-out: GI
# [5] = system: HEp-2; experiment: Cytotoxicity against human Hep2 cells at 10 uM after 48 hrs by SRB assay; type: functional; conditions: HEp-2, 48 h, read-out: GI
# [6] = system: PC-3; experiment: Cytotoxicity against human PC3 cells at 10 uM after 48 hrs by SRB assay; type: functional; conditions: PC-3, 48 h, read-out: GI
# [7] = system: DU-145; experiment: Cytotoxicity against human DU145 cells at 10 uM after 48 hrs by SRB assay; type: functional; conditions: DU-145, 48 h, read-out: GI
# [8] = system: HL-60; experiment: Cytotoxicity against human HL60 cells at 10 uM after 48 hrs by SRB assay; type: functional; conditions: HL-60, 48 h, read-out: GI
# [9] = system: THP-1; experiment: Cytotoxicity against human THP1 cells at 10 uM after 48 hrs by SRB assay; type: functional; conditions: THP-1, 48 h, read-out: GI
# [10] = system: HCT-15; experiment: Cytotoxicity against human HCT15 cells at 30 uM after 48 hrs by SRB assay; type: functional; conditions: HCT-15, 48 h, read-out: GI
# [11] = system: SF-295; experiment: Cytotoxicity against human SF295 cells at 30 uM after 48 hrs by SRB assay; type: functional; conditions: SF-295, 48 h, read-out: GI
# [12] = system: A549; experiment: Cytotoxicity against human A549 cells at 30 uM after 48 hrs by SRB assay; type: functional; conditions: A549, 48 h, read-out: GI
# [13] = system: MCF7; experiment: Cytotoxicity against human MCF7 cells at 30 uM after 48 hrs by SRB assay; type: functional; conditions: MCF7, 48 h, read-out: GI
# [14] = system: HEp-2; experiment: Cytotoxicity against human Hep2 cells at 30 uM after 48 hrs by SRB assay; type: functional; conditions: HEp-2, 48 h, read-out: GI
# [15] = system: PC-3; experiment: Cytotoxicity against human PC3 cells at 30 uM after 48 hrs by SRB assay; type: functional; conditions: PC-3, 48 h, read-out: GI
# [16] = system: DU-145; experiment: Cytotoxicity against human DU145 cells at 30 uM after 48 hrs by SRB assay; type: functional; conditions: DU-145, 48 h, read-out: GI
# [17] = system: HL-60; experiment: Cytotoxicity against human HL60 cells at 30 uM after 48 hrs by SRB assay; type: functional; conditions: HL-60, 48 h, read-out: GI
# [18] = system: THP-1; experiment: Cytotoxicity against human THP1 cells at 30 uM after 48 hrs by SRB assay; type: functional; conditions: THP-1, 48 h, read-out: GI
# [19] = system: HCT-15; experiment: Cytotoxicity against human HCT15 cells at 50 uM after 48 hrs by SRB assay; type: functional; conditions: HCT-15, 48 h, read-out: GI
# [20] = system: SF-295; experiment: Cytotoxicity against human SF295 cells at 50 uM after 48 hrs by SRB assay; type: functional; conditions: SF-295, 48 h, read-out: GI
# [21] = system: A549; experiment: Cytotoxicity against human A549 cells at 50 uM after 48 hrs by SRB assay; type: functional; conditions: A549, 48 h, read-out: GI
# [22] = system: MCF7; experiment: Cytotoxicity against human MCF7 cells at 50 uM after 48 hrs by SRB assay; type: functional; conditions: MCF7, 48 h, read-out: GI
# [23] = system: HEp-2; experiment: Cytotoxicity against human Hep2 cells at 50 uM after 48 hrs by SRB assay; type: functional; conditions: HEp-2, 48 h, read-out: GI
# [24] = system: PC-3; experiment: Cytotoxicity against human PC3 cells at 50 uM after 48 hrs by SRB assay; type: functional; conditions: PC-3, 48 h, read-out: GI
# [25] = system: HL-60; experiment: Cytotoxicity against human HL60 cells at 50 uM after 48 hrs by SRB assay; type: functional; conditions: HL-60, 48 h, read-out: GI
# [26] = system: DU-145; experiment: Cytotoxicity against human DU145 cells at 50 uM after 48 hrs by SRB assay; type: functional; conditions: DU-145, 48 h, read-out: GI
# [27] = system: THP-1; experiment: Cytotoxicity against human THP1 cells at 50 uM after 48 hrs by SRB assay; type: functional; conditions: THP-1, 48 h, read-out: GI
# [28] = system: HCT-15; experiment: Cytotoxicity against human HCT15 cells after 48 hrs by SRB assay; type: functional, cell-based; conditions: HCT-15, 48 h
# [29] = system: A549; experiment: Cytotoxicity against human A549 cells after 48 hrs by SRB assay; type: functional, cell-based; conditions: A549, 48 h
# [30] = system: SF-295; experiment: Cytotoxicity against human SF295 cells after 48 hrs by SRB assay; type: functional, cell-based; conditions: SF-295, 48 h
# [31] = system: MCF7; experiment: Cytotoxicity against human MCF7 cells after 48 hrs by SRB assay; type: functional, cell-based; conditions: MCF7, 48 h
# [32] = system: HEp-2; experiment: Cytotoxicity against human Hep2 cells after 48 hrs by SRB assay; type: functional, cell-based; conditions: HEp-2, 48 h
# [33] = system: PC-3; experiment: Cytotoxicity against human PC3 cells after 48 hrs by SRB assay; type: functional, cell-based; conditions: PC-3, 48 h
# [34] = system: DU-145; experiment: Cytotoxicity against human DU145 cells after 48 hrs by SRB assay; type: functional, cell-based; conditions: DU-145, 48 h
# [35] = system: HL-60; experiment: Cytotoxicity against human HL60 cells after 48 hrs by SRB assay; type: functional, cell-based; conditions: HL-60, 48 h
# [36] = system: THP-1; experiment: Cytotoxicity against human THP1 cells after 48 hrs by SRB assay; type: functional, cell-based; conditions: THP-1, 48 h
Structure (SMILES),inhibition of growth at 10 µM [1] [%],inhibition of growth at 10 µM [2] [%],inhibition of growth at 10 µM [3] [%],inhibition of growth at 10 µM [4] [%],inhibition of growth at 10 µM [5] [%],inhibition of growth at 10 µM [6] [%],inhibition of growth at 10 µM [7] [%],inhibition of growth at 10 µM [8] [%],inhibition of growth at 10 µM [9] [%],inhibition of growth at 30 µM [10] [%],inhibition of growth at 30 µM [11] [%],inhibition of growth at 30 µM [12] [%],inhibition of growth at 30 µM [13] [%],inhibition of growth at 30 µM [14] [%],inhibition of growth at 30 µM [15] [%],inhibition of growth at 30 µM [16] [%],inhibition of growth at 30 µM [17] [%],inhibition of growth at 30 µM [18] [%],inhibition of growth at 50 µM [19] [%],inhibition of growth at 50 µM [20] [%],further results
C=C(C)[C@@H]1CC[C@]2(C(=O)O)CC[C@]3(C)[C@H](CC[C@@H]4[C@@]5(C)CC[C@H](OCc6cn(-c7ccc([N+](=O)[O-])cc7)nn6)C(C)(C)[C@@H]5CC[C@]43C)[C@@H]12,36,52,28,20,43,48,43,63,51,52,72,49,44,54,59,54,78,68,65,87,inhibition of growth at 50 µM [21]: 62%; inhibition of growth at 50 µM [22]: 53%; inhibition of growth at 50 µM [23]: 72%; inhibition of growth at 50 µM [24]: 74%; inhibition of growth at 50 µM [25]: 94%; inhibition of growth at 50 µM [26]: 72%; inhibition of growth at 50 µM [27]: 93%; IC50 [28]: 28 µM; IC50 [29]: 15 µM; IC50 [30]: 8 µM; IC50 [31]: 38 µM; IC50 [32]: 15 µM; IC50 [33]: 13 µM; IC50 [34]: 24 µM; IC50 [35]: 4.5 µM; IC50 [36]: 9 µM
C=C(C)[C@@H]1CC[C@]2(C(=O)O)CC[C@]3(C)[C@H](CC[C@@H]4[C@@]5(C)CC[C@H](OCc6cn(-c7ccc(CC#N)cc7)nn6)C(C)(C)[C@@H]5CC[C@]43C)[C@@H]12,17,44,32,42,45,42,30,46,43,27,81,57,98,69,48,61,96,95,56,83,inhibition of growth at 50 µM [21]: 60%; inhibition of growth at 50 µM [22]: 99%; inhibition of growth at 50 µM [23]: 71%; inhibition of growth at 50 µM [24]: 64%; inhibition of growth at 50 µM [25]: 98%; inhibition of growth at 50 µM [26]: 68%; inhibition of growth at 50 µM [27]: 96%; IC50 [28]: 46 µM; IC50 [29]: 25 µM; IC50 [30]: 13 µM; IC50 [31]: 12 µM; IC50 [32]: 13 µM; IC50 [33]: 32 µM; IC50 [34]: 23 µM; IC50 [35]: 11 µM; IC50 [36]: 12 µM
C=C(C)[C@@H]1CC[C@]2(C(=O)O)CC[C@]3(C)[C@H](CC[C@@H]4[C@@]5(C)CC[C@H](OCc6cn(-c7cc(C)cc(O)c7)nn6)C(C)(C)[C@@H]5CC[C@]43C)[C@@H]12,28,23,23,70,9,47,10,24,15,56,75,59,96,25,74,51,90,85,66,90,inhibition of growth at 50 µM [21]: 71%; inhibition of growth at 50 µM [22]: 96%; inhibition of growth at 50 µM [23]: 42%; inhibition of growth at 50 µM [24]: 91%; inhibition of growth at 50 µM [25]: 98%; inhibition of growth at 50 µM [26]: 97%; inhibition of growth at 50 µM [27]: 99%; IC50 [28]: 26 µM; IC50 [29]: 26 µM; IC50 [30]: 19 µM; IC50 [31]: 3.8 µM; IC50 [32]: > 50 µM; IC50 [33]: 13 µM; IC50 [34]: 28 µM; IC50 [35]: 14 µM; IC50 [36]: 18 µM
C=C(C)[C@@H]1CC[C@]2(C(=O)O)CC[C@]3(C)[C@H](CC[C@@H]4[C@@]5(C)CC[C@H](OCc6cn(C7O[C@H](COC(C)=O)[C@H](OC(C)=O)[C@H](OC(C)=O)[C@H]7OC(C)=O)nn6)C(C)(C)[C@@H]5CC[C@]43C)[C@@H]12 (some centres undefined),39,8,6,35,25,5,8,62,50,51,20,10,44,41,32,20,66,61,63,39,inhibition of growth at 50 µM [21]: 37%; inhibition of growth at 50 µM [22]: 52%; inhibition of growth at 50 µM [23]: 58%; inhibition of growth at 50 µM [24]: 40%; inhibition of growth at 50 µM [25]: 74%; inhibition of growth at 50 µM [26]: 36%; inhibition of growth at 50 µM [27]: 72%; IC50 [28]: 28 µM; IC50 [29]: > 50 µM; IC50 [30]: > 50 µM; IC50 [31]: 45 µM; IC50 [32]: 40 µM; IC50 [33]: > 50 µM; IC50 [34]: > 50 µM; IC50 [35]: 5.5 µM; IC50 [36]: 50 µM
